In US9758529B2, “Fused dihydro-4H-pyrazolo[5,1-C][1,4]oxazinyl compounds and analogs for treating CNS disorders” (Sunovion Pharmaceuticals Inc., priority 2015, dated 2017):

Test system: mice
Assay: Neuropharmacological Assay (SmartCube)
Assay type: in vivo
Conditions: i.p. 15 min before behavioral test; 3 doses, most efficacious dose(s) presented
Excerpt: Neurosci. […] As reported in Roberds, because psychiatric diseases generally result from disorders of cell-cell communication or circuitry, intact systems are useful in detecting improvement in disease-relevant endpoints. These endpoints are typically behavioral in nature, often requiring human observation and interpretation. To facilitate testing of multiple compounds for behavioral effects relevant to psychiatric disease, PsychoGenics, Inc. (Tarrytown, N.Y., “PGI”) developed SmartCube™, an automated system in which behaviors of compound-treated mice are captured by digital video and analyzed with computer algorithms. […] PGI Analytical Systems uses data from SmartCube™ to compare the behavioral signature of a test compound to a database of behavioral signatures obtained using a large set of diverse reference compounds. (The composition of the database as well as validation of the method is further described in Roberds). In this way, the neuropharmacological effects of a test compound can be predicted by similarity to major classes of compounds, such as antipsychotics, anxiolytics and antidepressants.
The SmartCube™ system produces an activity signature indicating the probability that the activity of the test compound at the administered dose matches a given class of neuropharmacological agents. (See, e.g., Roberds, FIGS. 2 and 3). The test compound is simultaneously compared against multiple classes of agents; thus, a separate probability is generated for each behavioral effect measured (e.g., anxiolytic activity, analgesic activity, etc.). In Table 2 and 2B, these probabilities are reported for each behavioral effect measured as follows:
where LOQ is the limit of quantification.
Provided compounds were dissolved in a mixture of Pharmasolve™ (N-methyl-2-pyrrolidone), polyethylene glycol and propylene glycol, and were injected i.p. 15 min. before the behavioral test. For each compound, injections were administered at 3 different doses. For each behavioral effect measured, results for the most efficacious dose(s) are presented.

Cl.c1ccc2c3n(nc2c1)CCO[C@@H]3[C@@H]1COCCN1 (racemic) [Compound 45, (+/−)—(S)-3-((R)-3,4-dihydro-1H-[1,4]oxazino[4,3-b]indazol-1-yl)morpholin-4-ium chloride] was tested, and the “AD: ADHD (probability of class match)” value was “+ (LOQ≦ + <5%)”, the “AG: analgesic (probability of class match)” value (from here on “AG: analgesic”) was “+ (LOQ≦ + <5%)” and the “AX: anxiolytic (probability of class match)” value (from here on “AX: anxiolytic”) was “+ (LOQ≦ + <5%)”. For the same molecule, the “CE: cognitive enhancer (probability of class match)” value (shortened to “CE: cognitive enhancer”) was “+ (LOQ≦ + <5%)”, the “DP: anti-depressant (probability of class match)” value (“DP: anti-depressant” below) was “+ (LOQ≦ + <5%)” and the “HA: hallucinogen (probability of class match)” value (shortened to “HA: hallucinogen”) was “+ (LOQ≦ + <5%)”. The “MS: mood stabilizer (probability of class match)” value (from here on “MS: mood stabilizer”) was “+ (LOQ≦ + <5%)”, the “PS: anti-psychotic (probability of class match)” value (“PS: anti-psychotic” below) was “+ (LOQ≦ + <5%)” and the “SD: sedative hypnotic (probability of class match)” value (from here on “SD: sedative hypnotic”) was “+ (LOQ≦ + <5%)”. For the same molecule, the “UN: uncharacterized CNS activity (probability of class match)” value (from here on “UN: uncharacterized CNS activity”) was “+ (LOQ≦ + <5%)” and the “XG: anxiogenic (probability of class match)” value (“XG: anxiogenic” for short) was “+ (LOQ≦ + <5%)”.
For Cl.c1ccc2c3n(nc2c1)CCO[C@H]3[C@@H]1COCCN1 (racemic) [Compound 46, (+/−)—(S)-3-((S)-3,4-dihydro-1H-[1,4]oxazino[4,3-b]indazol-1-yl)morpholin-4-ium chloride], the “AD: ADHD (probability of class match)” value was “+ (LOQ≦ + <5%)”, the “AG: analgesic” value was “++ (5%≦ ++ <25%)” and the “AX: anxiolytic” value was “++ (5%≦ ++ <25%)”. For the same molecule, the “CE: cognitive enhancer” value was “+ (LOQ≦ + <5%)”, the “DP: anti-depressant” value was “+ (LOQ≦ + <5%)” and the “HA: hallucinogen” value was “+ (LOQ≦ + <5%)”. For the same molecule, the “MS: mood stabilizer” value was “+ (LOQ≦ + <5%)”, the “PS: anti-psychotic” value was “++ (5%≦ ++ <25%)” and the “SD: sedative hypnotic” value was “++ (5%≦ ++ <25%)”. For the same molecule, the “UN: uncharacterized CNS activity” value was “++ (5%≦ ++ <25%)” and the “XG: anxiogenic” value was “+ (LOQ≦ + <5%)”.
In the case of CN1CCOC[C@H]1[C@H]1OCCn2nc3ccccc3c21 (racemic) [Compound 47, (+/−)-(3S,4R)-3-((R)-3,4-dihydro-1H-[1,4]oxazino[4,3-b]indazol-1-yl)-4-methylmorpholin-4-ium chloride], the “AD: ADHD (probability of class match)” value was “+ (LOQ≦ + <5%)”, the “AG: analgesic” value was “++ (5%≦ ++ <25%)” and the “AX: anxiolytic” value was “++ (5%≦ ++ <25%)”. For the same molecule, the “CE: cognitive enhancer” value was “+ (LOQ≦ + <5%)”, the “DP: anti-depressant” value was “+ (LOQ≦ + <5%)” and the “HA: hallucinogen” value was “+ (LOQ≦ + <5%)”. The “MS: mood stabilizer” value was “+ (LOQ≦ + <5%)”, the “PS: anti-psychotic” value was “+ (LOQ≦ + <5%)” and the “SD: sedative hypnotic” value was “+ (LOQ≦ + <5%)”. For the same molecule, the “UN: uncharacterized CNS activity” value was “+ (LOQ≦ + <5%)” and the “XG: anxiogenic” value was “+ (LOQ≦ + <5%)”.
In the case of CN1CCOC[C@H]1[C@@H]1OCCn2nc3ccccc3c21 (racemic) [Compound 48, (+/−)-(3S,4R)-3-((S)-3,4-dihydro-1H-[1,4]oxazino[4,3-b]indazol-1-yl)-4-methylmorpholin-4-ium chloride], the “AD: ADHD (probability of class match)” value was “+ (LOQ≦ + <5%)”, the “AG: analgesic” value was “+ (LOQ≦ + <5%)” and the “AX: anxiolytic” value was “+ (LOQ≦ + <5%)”. For the same molecule, the “CE: cognitive enhancer” value was “+ (LOQ≦ + <5%)”, the “DP: anti-depressant” value was “+ (LOQ≦ + <5%)” and the “HA: hallucinogen” value was “+ (LOQ≦ + <5%)”. The “MS: mood stabilizer” value was “+ (LOQ≦ + <5%)”, the “PS: anti-psychotic” value was “+ (LOQ≦ + <5%)” and the “SD: sedative hypnotic” value was “+ (LOQ≦ + <5%)”. The “UN: uncharacterized CNS activity” value was “+ (LOQ≦ + <5%)” and the “XG: anxiogenic” value was “+ (LOQ≦ + <5%)”.
For C[C@@H](N)[C@H]1OCCn2nc3ccccc3c21.Cl (relative stereo) [Compound 30, (+/−)-rel-(R)-1-((R)-3,4-dihydro-1H-[1,4]oxazino[4,3-b]indazol-1-yl) ethanaminium chloride], the “AD: ADHD (probability of class match)” value was “++ (5%≦ ++ <25%)”, the “AG: analgesic” value was “++ (5%≦ ++ <25%)” and the “AX: anxiolytic” value was “+++ (25%≦ +++ <50%)”. For the same molecule, the “CE: cognitive enhancer” value was “+ (LOQ≦ + <5%)”, the “DP: anti-depressant” value was “++ (5%≦ ++ <25%)” and the “HA: hallucinogen” value was “++ (5%≦ ++ <25%)”. For the same molecule, the “MS: mood stabilizer” value was “+ (LOQ≦ + <5%)”, the “PS: anti-psychotic” value was “+ (LOQ≦ + <5%)” and the “SD: sedative hypnotic” value was “+ (LOQ≦ + <5%)”. For the same molecule, the “UN: uncharacterized CNS activity” value was “+ (LOQ≦ + <5%)” and the “XG: anxiogenic” value was “+ (LOQ≦ + <5%)”.
For CN[C@H](C)[C@H]1OCCn2nc3ccccc3c21.Cl (relative stereo) [Compound 31, (+/−)-rel-(R)-1-((R)-3,4-dihydro-1H-[1,4]oxazino[4,3-b]indazol-1-yl)-N-methylethanaminium chloride], the “AD: ADHD (probability of class match)” value was “+ (LOQ≦ + <5%)”, the “AG: analgesic” value was “++ (5%≦ ++ <25%)” and the “AX: anxiolytic” value was “+++ (25%≦ +++ <50%)”. For the same molecule, the “CE: cognitive enhancer” value was “++ (5%≦ ++ <25%)”, the “DP: anti-depressant” value was “++ (5%≦ ++ <25%)” and the “HA: hallucinogen” value was “+ (LOQ≦ + <5%)”. The “MS: mood stabilizer” value was “+ (LOQ≦ + <5%)”, the “PS: anti-psychotic” value was “++ (5%≦ ++ <25%)” and the “SD: sedative hypnotic” value was “+ (LOQ≦ + <5%)”. For the same molecule, the “UN: uncharacterized CNS activity” value was “+++ (25%≦ +++ <50%)” and the “XG: anxiogenic” value was “+ (LOQ≦ + <5%)”.
C[C@H]([C@H]1OCCn2nc3ccccc3c21)N(C)C.Cl (relative stereo) [Compound 32, (+/−)-rel-(R)-1-((R)-3,4-dihydro-1H-[1,4]oxazino[4,3-b]indazol-1-yl)-N,N-dimethylethanaminium chloride] was tested, and the “AD: ADHD (probability of class match)” value was “+ (LOQ≦ + <5%)”, the “AG: analgesic” value was “+ (LOQ≦ + <5%)” and the “AX: anxiolytic” value was “++ (5%≦ ++ <25%)”. The “CE: cognitive enhancer” value was “++ (5%≦ ++ <25%)”, the “DP: anti-depressant” value was “++ (5%≦ ++ <25%)” and the “HA: hallucinogen” value was “+ (LOQ≦ + <5%)”. The “MS: mood stabilizer” value was “+ (LOQ≦ + <5%)”, the “PS: anti-psychotic” value was “+++ (25%≦ +++ <50%)” and the “SD: sedative hypnotic” value was “+ (LOQ≦ + <5%)”. The “UN: uncharacterized CNS activity” value was “++ (5%≦ ++ <25%)” and the “XG: anxiogenic” value was “+ (LOQ≦ + <5%)”.
In the case of C[C@H](N)[C@H]1OCCn2nc3ccccc3c21 (relative stereo) [Compound 33, (+/−)-rel-(R)-1-((S)-3,4-dihydro-1H-[1,4]oxazino[4,3-b]indazol-1-yl) ethanaminium chloride], the “AD: ADHD (probability of class match)” value was “++++ (50%≦ ++++)”, the “AG: analgesic” value was “++ (5%≦ ++ <25%)” and the “AX: anxiolytic” value was “++ (5%≦ ++ <25%)”. For the same molecule, the “CE: cognitive enhancer” value was “+ (LOQ≦ + <5%)”, the “DP: anti-depressant” value was “++ (5%≦ ++ <25%)” and the “HA: hallucinogen” value was “++ (5%≦ ++ <25%)”. For the same molecule, the “MS: mood stabilizer” value was “+ (LOQ≦ + <5%)”, the “PS: anti-psychotic” value was “+ (LOQ≦ + <5%)” and the “SD: sedative hypnotic” value was “+ (LOQ≦ + <5%)”. For the same molecule, the “UN: uncharacterized CNS activity” value was “+++ (25%≦ +++ <50%)” and the “XG: anxiogenic” value was “+ (LOQ≦ + <5%)”.
CN[C@@H](C)[C@H]1OCCn2nc3ccccc3c21 (relative stereo) [Compound 34, (+/−)-rel-(R)-1-((S)-3,4-dihydro-1H-[1,4]oxazino[4,3-b]indazol-1-yl)-N-methylethanaminium chloride] was tested, and the “AD: ADHD (probability of class match)” value was “+ (LOQ≦ + <5%)”, the “AG: analgesic” value was “+ (LOQ≦ + <5%)” and the “AX: anxiolytic” value was “++ (5%≦ ++ <25%)”. For the same molecule, the “CE: cognitive enhancer” value was “+ (LOQ≦ + <5%)”, the “DP: anti-depressant” value was “+ (LOQ≦ + <5%)” and the “HA: hallucinogen” value was “+ (LOQ≦ + <5%)”. For the same molecule, the “MS: mood stabilizer” value was “+ (LOQ≦ + <5%)”, the “PS: anti-psychotic” value was “+ (LOQ≦ + <5%)” and the “SD: sedative hypnotic” value was “+ (LOQ≦ + <5%)”. The “UN: uncharacterized CNS activity” value was “+ (LOQ≦ + <5%)” and the “XG: anxiogenic” value was “+ (LOQ≦ + <5%)”.
CNC[C@@H]1OCCn2nc3ccccc3c21 [Compound 1, (S)-(3,4-dihydro-1H-[1,4]oxazino[4,3-b]indazol-1-yl)-N-methylmethanaminium chloride] was tested, and the “AD: ADHD (probability of class match)” value was “+ (LOQ≦ + <5%)”, the “AG: analgesic” value was “+ (LOQ≦ + <5%)” and the “AX: anxiolytic” value was “++ (5%≦ ++ <25%)”. The “CE: cognitive enhancer” value was “+ (LOQ≦ + <5%)”, the “DP: anti-depressant” value was “+ (LOQ≦ + <5%)” and the “HA: hallucinogen” value was “+ (LOQ≦ + <5%)”. For the same molecule, the “MS: mood stabilizer” value was “+ (LOQ≦ + <5%)”, the “PS: anti-psychotic” value was “+ (LOQ≦ + <5%)” and the “SD: sedative hypnotic” value was “+ (LOQ≦ + <5%)”. For the same molecule, the “UN: uncharacterized CNS activity” value was “+ (LOQ≦ + <5%)” and the “XG: anxiogenic” value was “+ (LOQ≦ + <5%)”.
